The values below come from PubChem BioAssay (NCI).

The structures appear in SMILES notation.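 Test compounds were applied to cells in 96-well plates for 48 hours at 5 doses. At the GI50, growth is halved. TGI is the concentration that stops growth completely.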 Where only a bound is given, the exact number is not on record here.

Among the test systems are HOP-62 NSCLC; 786-0 renal; OVCAR-4 ovarian; HS 578T breast; HOP-92 NSCLC; NCI/ADR-RES ovarian; IGROV1 ovarian; DU-145 prostate; PC-3 prostate; MCF7 breast.
Holding throughout (assay): DTP human tumour cell line panel, 48 h

For the compound `O=C(O)COc1ccc2c(=O)c3sc4c(=O)c5ccccc5c(=O)c4c3c(=O)c2c1`, the GI50 in the test with HOP-62 NSCLC was 8.03 µM; in the test with 786-0 renal it was 21.8 µM; with OVCAR-4 ovarian, 14.1 µM; in the test on HS 578T breast, 3.4 µM; in the test on HOP-92 NSCLC, 18.9 µM; in the test on NCI/ADR-RES ovarian it was 29.9 µM. The GI50 in the test on IGROV1 ovarian is 18.3 µM; in the test on DU-145 prostate, 2.15 µM; with PC-3 prostate, 26.8 µM; in the test with MCF7 breast, 5.51 µM. In addition, the TGI with HOP-62 NSCLC was 22.4 µM; in the test on 786-0 renal it was 76.1 µM; in the test with OVCAR-4 ovarian, 27.3 µM; in the test with HS 578T breast, 19.2 µM; in the test on HOP-92 NSCLC, 43.2 µM; in the test with NCI/ADR-RES ovarian, over 100 µM. The TGI was 48.3 µM in the test on IGROV1 ovarian, 5.34 µM in the test with DU-145 prostate, over 100 µM in the test with PC-3 prostate and 25.8 µM in the test on MCF7 breast.
As to `C/C=C(\C)C(=O)O[C@H]1C=CC(=O)O[C@H]1CCC(=O)[C@H](C)O`, the GI50 in the test on HOP-62 NSCLC is 22.5 µM; in the test with 786-0 renal it was 14.9 µM; in the test with OVCAR-4 ovarian it was 11.9 µM; with HS 578T breast it was 16.2 µM; in the test with HOP-92 NSCLC, 14.3 µM; in the test with NCI/ADR-RES ovarian, 21.1 µM. The GI50 was 22 µM in the test with IGROV1 ovarian, 16.9 µM with DU-145 prostate, 15.8 µM in the test with PC-3 prostate and 7.47 µM with MCF7 breast. The TGI with HOP-62 NSCLC was found to be 48.2 µM; in the test on 786-0 renal, 30.1 µM; in the test with OVCAR-4 ovarian, 25.4 µM; with HS 578T breast, 39 µM; with HOP-92 NSCLC, 28.3 µM; in the test with NCI/ADR-RES ovarian it was 56.1 µM. Besides, the TGI in the test with IGROV1 ovarian turned out to be 46.8 µM; in the test on DU-145 prostate, 33.1 µM; in the test with PC-3 prostate, 32 µM; in the test with MCF7 breast it was 21.9 µM.
Take `COc1cccc(F)c1C(=O)c1cnc(NC2CCN(S(C)(=O)=O)CC2)nc1N`: the GI50 with HOP-62 NSCLC was 4.64 µM; in the test on 786-0 renal, 6.06 µM; with OVCAR-4 ovarian, 5.61 µM; with HS 578T breast it was 3.83 µM; in the test with HOP-92 NSCLC, 1.05 µM; in the test with NCI/ADR-RES ovarian, 6.9 µM. The GI50 in the test on IGROV1 ovarian is 3.9 µM; in the test on DU-145 prostate, 6.54 µM; with PC-3 prostate it was 0.984 µM; in the test on MCF7 breast it was 0.326 µM. Also, the TGI is 23 µM in the test on HOP-62 NSCLC; over 25 µM in the test with 786-0 renal; over 25 µM in the test on OVCAR-4 ovarian; 15.9 µM with HS 578T breast; 9.15 µM in the test on HOP-92 NSCLC; over 25 µM in the test with NCI/ADR-RES ovarian. Besides, the total growth inhibition concentration (TGI) in the test on IGROV1 ovarian was over 25 µM; in the test with DU-145 prostate, over 22.8 µM; in the test with PC-3 prostate, 12.3 µM; with MCF7 breast, over 25 µM.
Consider `Cn1c(I)c(C#CCO[Si](C)(C)C(C)(C)C)c(=O)[nH]c1=O`, for which the GI50 is over 44.1 µM in the test on HOP-62 NSCLC; 18.6 µM in the test on 786-0 renal; 10.1 µM in the test on OVCAR-4 ovarian; 20.1 µM in the test with HS 578T breast; 2.14 µM with HOP-92 NSCLC; 19.2 µM with NCI/ADR-RES ovarian. In addition, the GI50 was 17.2 µM in the test with IGROV1 ovarian, 15.3 µM in the test on DU-145 prostate, 17 µM in the test on PC-3 prostate and 15 µM in the test with MCF7 breast. In addition, the TGI with HOP-62 NSCLC is over 59 µM; in the test on 786-0 renal, 33.2 µM; with OVCAR-4 ovarian it was 27.4 µM; in the test with HS 578T breast it was 43.4 µM; with HOP-92 NSCLC, 4.67 µM; in the test with NCI/ADR-RES ovarian, 38.1 µM. Moreover, the total growth inhibition concentration (TGI) in the test on IGROV1 ovarian turned out to be 32.7 µM; in the test with DU-145 prostate it was 28.6 µM; with PC-3 prostate, 32.7 µM; in the test on MCF7 breast it was 33.2 µM.
`CCN(CC)CCC(CNc1ccnc2cc(Cl)ccc12)c1ccc(Cl)cc1` (stereo not drawn): the GI50 with HOP-62 NSCLC is 1.78 µM; in the test with 786-0 renal, 1.34 µM; with OVCAR-4 ovarian, 0.764 µM; with HS 578T breast it was 1.66 µM; in the test on HOP-92 NSCLC, 0.995 µM; in the test on NCI/ADR-RES ovarian it was 2.06 µM. In addition, the GI50 in the test with IGROV1 ovarian was 2.27 µM; in the test with DU-145 prostate, 5.44 µM; with PC-3 prostate it was 3.28 µM; with MCF7 breast, 1.06 µM. Moreover, the TGI was determined as 5.9 µM with HOP-62 NSCLC; 2.68 µM with 786-0 renal; 4.32 µM with OVCAR-4 ovarian; 4.67 µM in the test on HS 578T breast; 3.19 µM with HOP-92 NSCLC; 8.65 µM in the test on NCI/ADR-RES ovarian. For the same compound, the TGI in the test with IGROV1 ovarian worked out at 7.33 µM; in the test on DU-145 prostate it was 17.7 µM; in the test on PC-3 prostate, 17.7 µM; in the test with MCF7 breast it was 2.32 µM.
On to `C=C1C(=O)OC2CC(C)C(C(CC(C)=O)OC(C)=O)=CCC12` (stereo not drawn), for which the TGI with HOP-62 NSCLC is 46.9 µM; in the test on 786-0 renal, 9.65 µM; in the test on OVCAR-4 ovarian it was 34.2 µM; in the test on HS 578T breast, over 100 µM; with HOP-92 NSCLC, 21.2 µM; in the test on NCI/ADR-RES ovarian, over 45 µM. The TGI in the test on IGROV1 ovarian came to 29 µM; in the test on DU-145 prostate, 30.1 µM; in the test on PC-3 prostate, 41.8 µM; in the test on MCF7 breast, 18.2 µM.
Take `Oc1ccc(Nc2ncnc3c2sc2ncccc23)cc1`: the 50% growth inhibitory concentration (GI50) was 0.0175 µM in the test with HOP-62 NSCLC; under 0.01 µM in the test with 786-0 renal; over 88.7 µM in the test on OVCAR-4 ovarian; over 100 µM in the test on HS 578T breast; 0.08 µM in the test with HOP-92 NSCLC; 0.0286 µM with NCI/ADR-RES ovarian. Moreover, the GI50 was over 23.8 µM in the test with IGROV1 ovarian, 0.0369 µM with DU-145 prostate, 5.15 µM in the test with PC-3 prostate and under 0.01 µM with MCF7 breast. Also, the TGI in the test with OVCAR-4 ovarian is over 100 µM; with HS 578T breast, over 100 µM; with HOP-92 NSCLC, 11.6 µM; in the test with NCI/ADR-RES ovarian, over 35.2 µM; with IGROV1 ovarian, over 100 µM; in the test with DU-145 prostate, over 100 µM. The TGI in the test on PC-3 prostate and with MCF7 breast was over 100 µM throughout.
Take `COC(=O)c1ccc2c(c1)nc(NC(=O)c1ccccc1)n2CCCc1ccccc1`: the GI50 was 5.03 µM in the test on HOP-62 NSCLC; 4.77 µM in the test on 786-0 renal; 2.93 µM in the test on OVCAR-4 ovarian; 30.2 µM with HS 578T breast; 6 µM in the test with HOP-92 NSCLC; 4.1 µM in the test with NCI/ADR-RES ovarian. Further, the GI50 with IGROV1 ovarian was 5.01 µM; in the test with DU-145 prostate, 11.5 µM; in the test with PC-3 prostate, 4.07 µM; in the test on MCF7 breast, 1.78 µM. For the same compound, the TGI in the test on HOP-62 NSCLC, in the test on 786-0 renal, in the test on OVCAR-4 ovarian, with HS 578T breast, in the test on HOP-92 NSCLC and with NCI/ADR-RES ovarian was over 100 µM throughout. Also, the total growth inhibition concentration (TGI) in the test on IGROV1 ovarian, in the test on DU-145 prostate, in the test on PC-3 prostate and in the test with MCF7 breast was over 100 µM each time.

The term GI50 denotes the concentration that inhibits growth by half. What is called TGI is the concentration at which net growth stops. Read a low TGI as more potent growth arrest.
